This is an account of results in patent US7968548B2, “Melanocortin receptor-specific piperazine compounds with diamine groups” (Palatin Technologies, Inc., priority 2005, dated 2011).

The structures appear in SMILES notation. Where “and” joins values, the source holds several entries; their conditions need not be identical. Equal values may be shown once.

The target in one assay is T1, MC3-R (Homo sapiens, UniProt P41968).
T1 construct: expressed in transfected cells; host or cells: HEK-293
The assay is described as follows: Competitive inhibition binding assay using [I125]-NDP-α-MSH, HEK-293 membranes, recombinant hMC3-R. The conditions noted are these: for inhibition at 1 µM: 1 μM compound. On the procedure: (§1) A competitive inhibition binding assay was performed using membrane homogenates prepared from HEK-293 cells that express recombinant hMC4-R, hMC3-R, or hMC5-R, and from B-16 mouse melanoma cells (containing endogenous MC1-R). In some instances, HEK-293 cells that express recombinant hMC1-R were employed. In the examples that follow, all MC3-R, MC4-R and MC5-R values are for human recombinant receptors. MC1-R values are for B-16 mouse melanoma cells, unless the heading is “hMC1-R”, in which case the value is for human recombinant MC1-R. Assays were performed in 96 well GF/B Millipore multiscreen filtration plates (MAFB NOB10) pre-coated with 0.5% bovine serum albumin (Fraction V). […] After incubation for 60 minutes at 37° C., the assay mixture was filtered and the membranes washed three times with ice-cold buffer. Filters were dried and counted in a gamma counter for bound radioactivity. […] Maximal specific binding (100%) was defined as the difference in radioactivity (cpm) bound to cell membranes in the absence and presence of 1 μM NDP-α-MSH. […] Each assay was conducted in triplicate and the actual mean values are described, with results less than 0% reported as 0%. Ki values for test compounds were determined using Graph-Pad Prism® curve-fitting software.

Another assay deals with MC4-R (Homo sapiens, UniProt P32245). Kind of assay: Competitive inhibition binding assay using [I125]-NDP-α-MSH, HEK-293 membranes, recombinant hMC4-R. Set-up: expressed in transfected cells; host or cells: HEK-293. The conditions noted are these: for inhibition at 1 µM: 1 μM compound. As for the experimental part:
as §1

The next assay has as its target T2, MC5-R (Homo sapiens, UniProt P33032).
T2 construct: expressed in transfected cells; host or cells: HEK-293
Kind of assay: Competitive inhibition binding assay using [I125]-NDP-α-MSH, HEK-293 membranes, recombinant hMC5-R. The conditions noted are these: for inhibition at 1 µM: 1 μM compound. As for the experimental part:
as §1

The next assay addresses T3, hMC1-R (Homo sapiens, UniProt Q01726).
T3 construct: expressed in transfected cells; host or cells: HEK-293
The assay is described as follows: Competitive inhibition binding assay using [I125]-NDP-α-MSH, HEK-293 membranes, recombinant hMC1-R. The conditions noted are these: human recombinant MC1-R; for inhibition at 1 µM: 1 μM compound. On the procedure:
as §1

Assay [1] in a line: Mouse model IN feeding studies (body weight). It is filed as in vivo. The conditions noted are these: 20 hours. As for the experimental part: Food intake and body weight after IN and IP dosing. Changes in food intake and body weight were evaluated for selected compounds. Male C57BL/6 mice were obtained from Jackson labs (Bar Harbor, Me.). Animals were individually housed in conventional plexiglass hanging cages and maintained on a controlled 12 hour on/off light cycle. Water and pelleted (Harlan Teklad 2018 18% Protein Rodent Diet) food was provided ad libitum. The mice were dosed IP (by intraperitoneal injection) after a 24 hour fast or IN (by intranasal administration) with vehicle or selected compounds (0.1-3 mg/kg, and in some cases up to 10 mg/kg). All animals were dosed once a day (or up to four consecutive days) at the start of the “lights off” period. The changes in food intake for the 4 hour and 20 hour period after dosing relative to control animals administered vehicle were determined. Body weights were determine 4 hours prior to dosing and 20 hours after dosing, and the change in body weight relative to control animals administered vehicle were determined.

T3 sequence (Q01726 whole entry): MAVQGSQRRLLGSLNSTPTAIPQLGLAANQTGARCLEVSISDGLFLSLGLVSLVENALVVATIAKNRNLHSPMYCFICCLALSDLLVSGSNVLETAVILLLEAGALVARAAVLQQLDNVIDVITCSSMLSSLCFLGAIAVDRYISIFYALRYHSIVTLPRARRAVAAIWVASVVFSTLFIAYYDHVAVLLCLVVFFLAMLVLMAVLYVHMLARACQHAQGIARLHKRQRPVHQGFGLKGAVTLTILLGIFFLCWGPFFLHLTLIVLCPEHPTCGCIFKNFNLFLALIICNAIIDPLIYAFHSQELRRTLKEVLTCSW
MC4-R, sequence (P32245 whole entry): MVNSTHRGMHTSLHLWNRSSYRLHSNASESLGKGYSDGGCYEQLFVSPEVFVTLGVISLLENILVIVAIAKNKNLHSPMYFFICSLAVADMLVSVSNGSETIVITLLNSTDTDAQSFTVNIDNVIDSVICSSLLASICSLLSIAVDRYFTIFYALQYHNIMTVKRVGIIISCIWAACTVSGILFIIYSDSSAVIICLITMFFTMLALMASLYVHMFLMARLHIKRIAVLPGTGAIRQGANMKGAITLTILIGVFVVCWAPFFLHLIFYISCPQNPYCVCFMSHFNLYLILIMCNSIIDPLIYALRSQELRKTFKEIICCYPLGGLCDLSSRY
T2 sequence (P33032 whole entry): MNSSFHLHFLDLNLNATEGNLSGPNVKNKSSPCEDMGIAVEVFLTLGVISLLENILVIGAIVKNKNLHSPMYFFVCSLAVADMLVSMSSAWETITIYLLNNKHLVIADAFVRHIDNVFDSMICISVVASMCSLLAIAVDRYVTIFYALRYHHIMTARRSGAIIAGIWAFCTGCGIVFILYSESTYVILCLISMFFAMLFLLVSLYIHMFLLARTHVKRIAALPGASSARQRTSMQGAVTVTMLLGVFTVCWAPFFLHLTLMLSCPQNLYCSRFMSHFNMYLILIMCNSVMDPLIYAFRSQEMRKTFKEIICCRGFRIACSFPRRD
T1 sequence (P41968 whole entry): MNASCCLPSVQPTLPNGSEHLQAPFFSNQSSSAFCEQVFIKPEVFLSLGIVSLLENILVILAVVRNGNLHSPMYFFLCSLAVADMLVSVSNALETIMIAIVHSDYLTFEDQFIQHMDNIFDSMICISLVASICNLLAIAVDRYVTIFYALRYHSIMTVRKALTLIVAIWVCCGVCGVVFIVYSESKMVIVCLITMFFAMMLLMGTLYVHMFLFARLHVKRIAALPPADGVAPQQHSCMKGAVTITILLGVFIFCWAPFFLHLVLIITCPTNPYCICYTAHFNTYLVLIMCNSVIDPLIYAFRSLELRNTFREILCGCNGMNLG

Consider `CC(C)C[C@@H]1CN(C[C@H](N)Cc2ccc(Cl)cc2Cl)[C@@H](CCCNCCCCCN)CN1C(=O)Cc1ccc2ccccc2c1` [Example 31, 1-{(2R,5S)-4-[(R)-2-Amino-3-(2,4-dichloro-phenyl)-propyl]-5-[3-(5-amino-pentylamino)-propyl]-2-isobutyl-piperazin-1-yl}-2-naphthalen-2-yl-ethanone], for which the inhibition at 1 µM on MC3-R was 59%; at MC4-R it was 91%; at MC5-R, 87%; at hMC1-R it was 36%.
Taken in the same sequence, the figures for `CC(C)C[C@@H]1CN(C[C@H](N)Cc2ccc(Cl)cc2Cl)[C@@H](CCCNCCCCN)CN1C(=O)Cc1ccc2ccccc2c1` [Example 30, 1-{(2R,5S)-5-[3-(4-Amino-butylamino)-propyl]-4-[(R)-2-amino-3-(2,4-dichloro-phenyl)-propyl]-2-isobutyl-piperazin-1-yl}-2-naphthalen-2-yl-ethanone] were 65%, 91%, 84% and 37%.
Turning to `NCCNCCCC[C@H]1CN(C(=O)[C@H](N)Cc2ccc(Cl)cc2Cl)[C@H](CC2CCCCC2)CN1C(=O)[C@H](N)Cc1ccc(Cl)cc1Cl` [Example 24, (R)-2-Amino-1-{(2R,5S)-4-[(R)-2-amino-3-(2,4-dichloro-phenyl)-propionyl]-5-[4-(2-amino-ethylamino)-butyl]-2-cyclohexylmethyl-piperazin-1-yl}-3-(2,4-dichloro-phenyl)-propan-1-one], the Ki stood at 443 nM on MC3-R, 17 nM at MC4-R, 139 nM at MC5-R and 270 nM on hMC1-R.
Turning to `CC(C)C[C@@H]1CN(C(=O)[C@H](N)Cc2ccc3ccccc3c2)[C@@H](CCCNCCN)CN1C(=O)[C@H](N)Cc1ccc2ccccc2c1` [Example 13, (R)-2-Amino-1-[(2R,5S)-5-[3-(2-amino-ethylamino)-propyl]-4-((R)-2-amino-3-naphthalen-2-yl-propionyl)-2-isobutyl-piperazin-1-yl]-3-naphthalen-2-yl-propan-1-one], the “average decrease in body weight compared to control animals” value (shortened to “average decrease in body weight”) is given as 1% in assay [1] (0.1 mg/kg), 3% in assay [1] (0.3 mg/kg) and 3.2% in assay [1] (1 mg/kg). For the same molecule, the Ki at MC3-R is 127 nM; at MC4-R, 13 nM; at hMC1-R, 135 nM. For the same molecule, the inhibition at 1 µM at MC3-R was 79%; at MC4-R, 96%; on MC5-R, 57%; at hMC1-R it was 40%.
Take `NCCNCCC[C@H]1CN(C(=O)[C@H](N)Cc2ccc3ccccc3c2)[C@H](CC2CCCCC2)CN1C(=O)[C@H](N)Cc1ccc2ccccc2c1` [Example 16, (R)-2-Amino-1-[(2R,5S)-5-[3-(2-amino-ethylamino)-propyl]-4-((R)-2-amino-3-naphthalen-2-yl-propionyl)-2-cyclohexylmethyl-piperazin-1-yl]-3-naphthalen-2-yl-propan-1-one]: the Ki on MC3-R is 36 nM; at MC4-R, 99 nM and 81 nM; on MC5-R it was 30 nM; at hMC1-R, 22 nM.
Regarding `NCCNCCCC[C@H]1CN(C(=O)[C@H](N)Cc2ccc3ccccc3c2)[C@H](CC2CCCCC2)CN1C(=O)[C@H](N)Cc1ccc2ccccc2c1` [Example 23, (R)-2-Amino-1-[(2R,5S)-5-[4-(2-amino-ethylamino)-butyl]-4-((R)-2-amino-3-naphthalen-2-yl-propionyl)-2-cyclohexylmethyl-piperazin-1-yl]-3-naphthalen-2-yl-propan-1-one], the “average decrease in body weight” value in assay [1] (0.1 mg/kg) was determined as 1.6%; in assay [1] (0.3 mg/kg) it was 2.6%. Also, the inhibition constant (Ki) was determined as 435 nM at MC3-R, 20 nM on MC4-R, 103 nM on MC5-R and 153 nM at hMC1-R.
As to `Cc1ccc(C[C@@H](N)C(=O)N2C[C@@H](C)N(C(=O)[C@H](N)Cc3ccc(C)cc3C)C[C@@H]2CCCNCCN)c(C)c1` [Example 26, (R)-2-Amino-1-{(2R,5S)-4-[(R)-2-amino-3-(2,4-dimethyl-phenyl)-propionyl]-5-[3-(2-amino-ethylamino)-propyl]-2-methyl-piperazin-1-yl}-3-(2,4-dimethyl-phenyl)-propan-1-one], the inhibition at 1 µM on MC3-R stood at 57%; at MC4-R, 96%; at MC5-R it was 76%; on hMC1-R it was 53%. The Ki on MC4-R was found to be 64 nM.
Regarding `CC(C)C[C@@H]1CN(C[C@H](N)Cc2ccc(Cl)cc2Cl)[C@@H](CCCNCCCN)CN1C(=O)Cc1ccc2ccccc2c1` [Example 29, 1-{(2R,5S)-4-[(R)-2-Amino-3-(2,4-dichloro-phenyl)-propyl]-5-[3-(3-amino-propylamino)-propyl]-2-isobutyl-piperazin-1-yl}-2-naphthalen-2-yl-ethanone], the inhibition at 1 µM at MC3-R was 65%; on MC4-R, 91%; on MC5-R, 84%; on hMC1-R it was 33%.
For `CC(C)C[C@@H]1CN(C(=O)[C@H](N)Cc2ccc3ccccc3c2)[C@@H](CCCCNCCN)CN1C(=O)[C@H](N)Cc1ccc2ccccc2c1` [Example 20, (R)-2-Amino-1-[(2R,5S)-5[4-(2-amino-ethylamino)-butyl]-4-((R)-2-amino-3-naphthalen-2-yl-propionyl)-2-isobutyl-piperazin-1-yl]-3-naphthalen-2-yl-propan-1-one], the figures for the “average decrease in body weight” value in assay [1] (0.1 mg/kg) and in assay [1] (0.3 mg/kg) were 1.2% and 3%, respectively. In addition, the Ki turned out to be 321 nM at MC3-R, 9 nM on MC4-R, 253 nM at MC5-R and 215 nM on hMC1-R. For the same molecule, the inhibition at 1 µM on MC3-R was determined as 62%; at MC4-R it was 99%; at MC5-R, 49%; at hMC1-R, 68%.
As for `NCCNCCC[C@H]1CN(C(=O)[C@H](N)Cc2ccc(Cl)cc2Cl)[C@H](CC2CCCCC2)CN1C(=O)[C@H](N)Cc1ccc(Cl)cc1Cl` [Example 15, (R)-2-Amino-1-{(2R,5S)-4-[(R)-2-amino-3-(2,4-dichloro-phenyl)-propionyl]-5-[3-(2-amino-ethylamino)-propyl]-2-cyclohexylmethyl-piperazin-1-yl}-3-(2,4-dichloro-phenyl)-propan-1-one], the inhibition at 1 µM on MC3-R amounted to 36%; at MC4-R, 83%; at MC5-R it was 31%; on hMC1-R, 27%. Further, the Ki at MC4-R turned out to be 74 nM.
On to `Cc1ccc(C[C@@H](N)C(=O)N2C[C@H](CCCCNCCN)N(C(=O)[C@H](N)Cc3ccc(C)cc3C)C[C@H]2CC(C)C)c(C)c1` [Example 21, (R)-2-Amino-1-{(2R,5S)-4-[(R)-2-amino-3-(2,4-dimethyl-phenyl)-propionyl]-5[4-(2-amino-ethylamino)-butyl]-2-isobutyl-piperazin-1-yl}-3-(2,4-dimethyl-phenyl)-propan-1-one], for which the Ki at MC3-R is 1050 nM; on MC4-R it was 83 nM; on MC5-R, 450 nM; at hMC1-R, 567 nM. For the same molecule, the inhibition at 1 µM on MC3-R stood at 55%; at MC4-R it was 95%; at MC5-R it was 51%; at hMC1-R, 39%.
With `C[C@@H]1CN(C(=O)[C@H](N)Cc2ccc(Cl)cc2Cl)[C@@H](CCCNCCN)CN1C(=O)[C@H](N)Cc1ccc(Cl)cc1Cl` [Example 25, (R)-2-Amino-1-{(2R,5S)-4-[(R)-2-amino-3-(2,4-dichloro-phenyl)-propionyl]-5-[3-(2-amino-ethylamino)-propyl]-2-methyl-piperazin-1-yl}-3-(2,4-dichloro-phenyl)-propan-1-one], the inhibition at 1 µM at MC3-R is 89%; at MC4-R, 98%; at MC5-R, 93%; at hMC1-R it was 67%. The Ki on MC4-R was 41 nM.
Take `C[C@@H]1CN(C(=O)[C@H](N)Cc2ccc3ccccc3c2)[C@@H](CCCNCCN)CN1C(=O)[C@H](N)Cc1ccc2ccccc2c1` [Example 27, (R)-2-Amino-1-[(2R,5S)-5-[3-(2-amino-ethylamino)-propyl]-4-((R)-2-amino-3-naphthalen-2-yl-propionyl)-2-methyl-piperazin-1-yl]-3-naphthalen-2-yl-propan-1-one]: the inhibition at 1 µM amounted to 79% on MC3-R, 93% on MC4-R, 73% on MC5-R and 62% on hMC1-R. Further, on MC4-R, the Ki turned out to be 42 nM.
